Laboratory results from BindingDB's records for doi:10.1021/jm010237l (Abbott Laboratories, 2001).

The molecules below were run against Endothelin receptor type B (Sus scrofa) (UniProt P35463) (assay: Binding affinity against endothelin B receptor in porcine cerebellar tissue).
Chain of Endothelin receptor type B (Sus scrofa) (P35463 whole entry, looked up): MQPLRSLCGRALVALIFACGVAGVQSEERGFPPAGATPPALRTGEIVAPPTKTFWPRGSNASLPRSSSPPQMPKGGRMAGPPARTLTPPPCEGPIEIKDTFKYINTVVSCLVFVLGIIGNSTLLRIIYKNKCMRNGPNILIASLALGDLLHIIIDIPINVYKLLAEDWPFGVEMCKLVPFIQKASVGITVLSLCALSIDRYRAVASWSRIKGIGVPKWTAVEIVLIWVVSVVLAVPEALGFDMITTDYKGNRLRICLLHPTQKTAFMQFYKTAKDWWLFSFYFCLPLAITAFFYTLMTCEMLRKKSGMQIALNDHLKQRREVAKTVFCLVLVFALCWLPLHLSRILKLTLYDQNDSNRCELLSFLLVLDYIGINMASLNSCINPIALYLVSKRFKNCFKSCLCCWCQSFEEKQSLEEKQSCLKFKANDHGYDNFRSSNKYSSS

First: CCCCN(CCCC)C(=O)CN1C[C@H](c2ccc3c(c2)OCCO3)[C@@H](C(=O)O)[C@@H]1c1ccc(CC)cc1 [1-Dibutylcarbamoylmethyl-4-(2,3-dihydro-benzo[1,4]dioxin-6-yl)-2-(4-ethyl-phenyl)-pyrrolidine-3-carboxylic acid]
Second: CCCCN(CCCC)C(=O)CN1C[C@H](c2ccc3c(c2)OCO3)[C@@H](C(=O)O)[C@@H]1c1ccc(CC)cc1 [4-Benzo[1,3]dioxol-5-yl-1-dibutylcarbamoylmethyl-2-(4-ethyl-phenyl)-pyrrolidine-3-carboxylic acid]
The IC50 of the first is 5.9-fold higher: 7700 nM for the first, 1300 nM for the second.

`CCCCN(CCCC)C(=O)CN1C[C@H](c2ccc3c(c2)CCO3)[C@@H](C(=O)O)[C@@H]1c1ccc(CC)cc1` [1-Dibutylcarbamoylmethyl-4-(2,3-dihydro-benzofuran-5-yl)-2-(4-ethyl-phenyl)-pyrrolidine-3-carboxylic acid] and `CCCCN(CCCC)C(=O)CN1C[C@H](c2ccc3c(c2)CCO3)[C@@H](C(=O)O)[C@@H]1c1ccc(C)cc1` [1-Dibutylcarbamoylmethyl-4-(2,3-dihydro-benzofuran-5-yl)-2-p-tolyl-pyrrolidine-3-carboxylic acid] are within 1.5-fold of each other in IC50: 8130 nM for the first, 12000 nM for the second.

Compared with `CCCCN(CCCC)C(=O)CN1C[C@H](c2ccc3c(c2)OCC3)[C@@H](C(=O)O)[C@@H]1c1ccc(OC)cc1` [1-Dibutylcarbamoylmethyl-4-(2,3-dihydro-benzofuran-6-yl)-2-(4-methoxy-phenyl)-pyrrolidine-3-carboxylic acid], `CCCCN(CCCC)C(=O)CN1C[C@H](c2ccc3c(c2)CCO3)[C@@H](C(=O)O)[C@@H]1c1ccc(OC)cc1` [(2R,3R,4S)-1-Dibutylcarbamoylmethyl-4-(2,3-dihydro-benzofuran-5-yl)-2-(4-methoxy-phenyl)-pyrrolidine-3-carboxylic acid] is 2.8-fold higher in IC50: 960 nM for the first, 2670 nM for the second. The first is the more potent here.

Going from `CCCCN(CCCC)C(=O)CN1C[C@H](c2ccc3c(c2)OCO3)[C@@H](C(=O)O)[C@@H]1c1ccc(F)c(F)c1` [4-Benzo[1,3]dioxol-5-yl-1-dibutylcarbamoylmethyl-2-(3,4-difluoro-phenyl)-pyrrolidine-3-carboxylic acid] to `CCCCN(CCCC)C(=O)CN1C[C@H](c2ccc3c(c2)OCO3)[C@@H](C(=O)O)[C@@H]1c1ccc(OC)c(F)c1` [4-Benzo[1,3]dioxol-5-yl-1-dibutylcarbamoylmethyl-2-(3-fluoro-4-methoxy-phenyl)-pyrrolidine-3-carboxylic acid], the IC50 falls from 1040 nM to 30 nM (35-fold). The second is the more potent here.

Going from `CCCCN(CCCC)C(=O)CN1C[C@H](c2ccc3c(c2)OCO3)[C@@H](C(=O)O)[C@@H]1c1ccc(OC)c(OC)c1` [4-Benzo[1,3]dioxol-5-yl-1-dibutylcarbamoylmethyl-2-(3,4-dimethoxy-phenyl)-pyrrolidine-3-carboxylic acid] to `CCCCN(CCCC)C(=O)CN1C[C@H](c2ccc3c(c2)OCO3)[C@@H](C(=O)O)[C@@H]1c1ccc(C)cc1` [4-Benzo[1,3]dioxol-5-yl-1-dibutylcarbamoylmethyl-2-p-tolyl-pyrrolidine-3-carboxylic acid], the IC50 rises from 300 nM to 2140 nM (7.1-fold).

Going from `CCCCN(CCCC)C(=O)CN1C[C@H](c2ccc3c(c2)OCO3)[C@@H](C(=O)O)[C@@H]1c1ccc(CCC)cc1` [4-Benzo[1,3]dioxol-5-yl-1-dibutylcarbamoylmethyl-2-(4-propyl-phenyl)-pyrrolidine-3-carboxylic acid] to `CCCCN(CCCC)C(=O)CN1C[C@H](c2ccc3c(c2)OCO3)[C@@H](C(=O)O)[C@@H]1c1ccc(C(F)(F)F)cc1` [4-Benzo[1,3]dioxol-5-yl-1-dibutylcarbamoylmethyl-2-(4-trifluoromethyl-phenyl)-pyrrolidine-3-carboxylic acid], the IC50 rises from 1130 nM to 14300 nM (13-fold).

`CCCCN(CCCC)C(=O)CN1C[C@H](c2ccc3occc3c2)[C@@H](C(=O)O)[C@@H]1c1ccc(OC)cc1` [4-Benzofuran-5-yl-1-dibutylcarbamoylmethyl-2-(4-methoxy-phenyl)-pyrrolidine-3-carboxylic acid] gave an IC50 of 5080 nM.
